Measurements reported in US20040047894A1, “Preparation for improved dietary utilisation” (priority 2001, published 2004).

Columns and labels:
ICR mice [1] = test: Four-week feeding experiment: bodyweight, feed intake and feed utilization; assay type: in vivo; conditions: four weeks
ICR mice [2] = conditions: 1.0% calendic acid (ethyl ester) in feed, six weeks
Method: 5-6-week-old male and female ICR mice were obtained from Charles River. 18 animals (9 m/w) were randomly assigned to each experimental group. The animals were raised in groups of 3 animals at 20° C. in a 12-hour light/dark cycle. […] It comprised the following components: sucrose, casein, corn starch, DL-methionin, 5.5% of a mixture of vegetable oils (so that the feed comprised 0.6% linolenic acid and 3% linoleic acid of the total lipids), mineral and vitamin mix and Ethoxyquin (0.1 g/kg). In the experimental feed, the amount of vegetable oils was replaced by the corresponding amount of calendic acid. Calendic acid was present here as the ethyl ester and was obtained from calendula oil (BiRo, Sommerschenburg, Germany).
After a one-week adaptation period on control feed, a six-week experiment was carried out. Body weight and feed intake were measured weekly. At the end of the study the animals were killed and viscera and organs such as liver, heart and lungs were removed. The empty carcasses were frozen in liquid nitrogen, homogenized, and the contents of fat, protein and ash were determined by standard methods.

CCCCC\C=C/C=C/C=C/CCCCCCC(=O)O [Calendic acid, calendic acid]
feed intake, male animals (ICR mice [1]; male ICR mice, calendula oil 0.5-2.0% in feed): dose-dependent effect towards reduced feed intake
feed utilization, male animals (ICR mice [1]; male ICR mice, calendula oil 0.5-2.0% in feed, dose-dependent, FIG. 3): significantly improved
weight gain (ICR mice [1]; male and female ICR mice, calendula oil 0.5-2.0% in feed, FIG. 1): without affecting weight gain
feed intake (ICR mice [1]; male and female ICR mice, corn oil in feed replaced by crude calendula oil 0.5, 1.0 or 2.0% (approx. 62% calendic acid as triglyceride), FIG. 2): reduced feed intake
changes in body weight versus control group (ICR mice [2]; ICR mice): comparable
fat content in the experimental animals (ICR mice [2]; ICR mice, effect greater in male than in female animals): significantly decreased the fat content
Body fat content (in % of body composition), female animals (ICR mice [2]; female ICR mice, control 10.3% fat): 9.5% fat
Body fat content (in % of body composition), male animals (ICR mice [2]; male ICR mice, control 12.2% fat): 8.0% fat
